US12528773B2, “Non-lysosomal glucosylceramidase inhibitors and uses thereof” (ALECTOS THERAPEUTICS INC., priority 2020, dated 2026)
Read-outs that look alike come from different tables or passages of the source.

Assays:
[1] = test system: rat intestinal alpha-glucosidases; assay: Inhibition of rat intestinal alpha-glucosidases (rat intestinal lysate, glucose detection); format: biochemical; settings: compound concentration 25 μM, sucrose as substrate
Protocol: Assay for Determination of Inhibition of Rat Intestinal Alpha-Glucosidases
Various concentrations of test compounds were prepared in DMSO and then diluted into buffer consisting of 100 mM citric acid, 200 mM disodium phosphate, pH 6.0. Rat intestinal acetone powder (Sigma) was dissolved to 12.5 mg/mL in assay buffer and sonicated in an ice bath, centrifuged, and the supernatant was collected, aliquoted and stored at −20° C. until use. On the day of the assay, the rat intestinal lysate was diluted to 6.25 mg/mL (sucrose reactions) and 2.1 mg/ml (maltose reactions) in assay buffer. The final reaction solutions for sucrose contained 2.1 mg/mL rat intestinal lysate, 40 mM sucrose, 50 or 25 μM of test compound, and 3.3% DMSO. The final reaction solution for maltose contained 0.69 mg/mL rat intestinal lysate, 10 mM maltose, 50 or 25 μM of test compound, and 3.3% DMSO. The reaction was initiated by the addition of substrate (sucrose or maltose) and allowed to proceed at 37° C. for 20 min to assess rat intestinal alpha-glycosidase activities. The reaction was stopped by addition of 20 μL of 2 M Tris-HCl, pH 7.0. The glucose produced during the reaction was detected using a commercial Amplex Red glucose detection kit from Thermo Fisher. For a full plate, the Amplex Red detection mixture was prepared by mixing 35 μL glucose oxidase, 35 μL horseradish peroxidase and 35 μL Amplex Red into 3395 μL 1× Amplex Red detection buffer. A total of 30 μL of detection mixture was added to each well. Fluorescence was measured in kinetic mode on a Biotek Synergy H4 plate reader at a wavelength of 573 nm for excitation and 610 nm for emission for 15 min and quantified from the data at 10 min. Incubations without added rat intestinal lysate were used to correct for the background amount of glucose present in the samples. Incubations without added test compound were used to define maximal enzyme activity. Percent inhibition of rat intestinal alpha-glucosidases was determined by dividing the amount of glucose detected in the presence of test compound by the amount of glucose detected in the maximal enzyme activity wells. All conditions were analyzed in triplicate. […] The final reaction solutions were the same as described above for the Amplex Red Detection kit. After a 20 min reaction time at 37° C., 100 μL of hexokinase glucose reagent was added to all test wells except for the no enzyme added control wells and no test compound added wells. The plate was incubated for a further 15 min at room temperature and the absorbance was read at 340 nm on a Biotek Synergy H4 plate reader. The percent inhibition of rat intestinal alpha-glucosidases was determined in a similar manner as described above.

GBA2 = GBA2 (Homo sapiens (Human), UniProt Q9HCG7); assay: Inhibition of GBA2 in cell lysate (4-methylumbelliferone glucopyranoside substrate); format: biochemical;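 note: homogenate of stably transfected HEK293T cells pre-treated with a GCase inhibitor, test compound preincubated 5 min at 37 °C, substrate reaction 20 min at 37 °C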
[2] = HEK293T-overexpressing GBA2 cellular homogenate, pH 5.5, read-out: GBA2 IC50

GBA2, sequence (Q9HCG7 whole entry): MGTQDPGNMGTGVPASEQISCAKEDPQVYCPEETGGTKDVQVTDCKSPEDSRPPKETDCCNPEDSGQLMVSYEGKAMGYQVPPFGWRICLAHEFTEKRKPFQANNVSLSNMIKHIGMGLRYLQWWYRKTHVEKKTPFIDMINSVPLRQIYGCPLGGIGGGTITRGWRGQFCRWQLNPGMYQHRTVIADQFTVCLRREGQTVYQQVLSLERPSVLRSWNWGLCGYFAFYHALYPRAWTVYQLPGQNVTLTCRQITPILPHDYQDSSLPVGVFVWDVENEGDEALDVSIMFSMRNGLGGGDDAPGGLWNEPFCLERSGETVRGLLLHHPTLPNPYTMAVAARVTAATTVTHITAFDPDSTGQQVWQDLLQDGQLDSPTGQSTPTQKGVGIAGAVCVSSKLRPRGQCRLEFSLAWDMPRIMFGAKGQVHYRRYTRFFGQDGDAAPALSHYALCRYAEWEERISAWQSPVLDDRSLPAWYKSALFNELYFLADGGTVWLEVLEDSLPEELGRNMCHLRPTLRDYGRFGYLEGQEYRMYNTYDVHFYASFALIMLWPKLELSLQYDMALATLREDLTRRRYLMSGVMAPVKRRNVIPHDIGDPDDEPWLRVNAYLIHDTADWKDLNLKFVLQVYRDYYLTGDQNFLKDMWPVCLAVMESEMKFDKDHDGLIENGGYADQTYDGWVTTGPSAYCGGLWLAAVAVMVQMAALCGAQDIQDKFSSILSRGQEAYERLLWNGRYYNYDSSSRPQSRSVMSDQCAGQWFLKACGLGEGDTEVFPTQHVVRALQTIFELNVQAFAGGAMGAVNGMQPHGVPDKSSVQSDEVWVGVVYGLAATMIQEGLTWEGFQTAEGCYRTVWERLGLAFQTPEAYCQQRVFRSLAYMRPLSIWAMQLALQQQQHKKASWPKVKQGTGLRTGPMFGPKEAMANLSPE

Compound | rat α-glu. (% inhib.) [1] | IC50 (GBA2; [2]) | IC50 (GBA2)
OC[C@@H]1[C@@H](O)[C@H](O)[C@@H](O)CN1CCCCCOCC12CC3CC(CC(C3)C1)C2 [AMP-DNM, (2R,3R,4R,5S)-1-(5-((3R,5R,7R)-adamantan-1-ylmethoxy)pentyl)-2-(hydroxymethyl)piperidine-3,4,5-triol, reference compound] | 85% | – | –
O[C@H]1[C@H](O)CN(CCC2CCCCC2)C[C@@H]1O [Example 4, (3S,4r,5R)-1-(2-cyclohexylethyl)piperidine-3,4,5-triol] | 14% | < 0.1 µM | –
O[C@H]1[C@H](O)CN(CCCC2CCCCC2)C[C@@H]1O [Example 5, (3S,4r,5R)-1-(3-cyclohexylpropyl)piperidine-3,4,5-triol] | 10% | < 0.1 µM | –
O[C@H]1[C@H](O)CN(CCc2cccc(Cl)c2F)C[C@@H]1O [Example 6, (3S,4r,5R)-1-(3-chloro-2-fluorophenethyl)piperidine-3,4,5-triol] | 3% | < 0.1 µM | –
O[C@H]1[C@H](O)CN(CCc2ccc(Cl)c(Cl)c2)C[C@@H]1O [Example 8, (3S,4r,5R)-1-(3,4-dichlorophenethyl)piperidine-3,4,5-triol] | 0% | < 0.1 µM | –
CC(Cc1cccc(Cl)c1F)N1C[C@@H](O)[C@H](O)[C@@H](O)C1 (stereo partly drawn) [Example 16, (3S,4r,5R)-1-(1-(3-chloro-2-fluorophenyl)propan-2-yl)piperidine-3,4,5-triol] | 7% | – | 0.1 to 1 µM
CC(CCc1cccc(Cl)c1F)N1C[C@@H](O)[C@H](O)[C@@H](O)C1 (stereo partly drawn) [Example 17, (3S,4r,5R)-1-(4-(3-chloro-2-fluorophenyl)butan-2-yl)piperidine-3,4,5-triol] | 0% | 0.1 to 1 µM | –
O[C@H]1[C@H](O)CN(C[C@H]2CCN(c3ncccc3C(F)(F)F)C2)C[C@@H]1O [Example 19, (3S,4R,5R)-1-(((R)-1-(3-(trifluoromethyl)pyridin-2-yl)pyrrolidin-3-yl)methyl)piperidine-3,4,5-triol] | 6% | < 0.1 µM | –
O[C@H]1[C@H](O)CN(C[C@H]2CCN(c3nc4ccccc4o3)C2)C[C@@H]1O [Example 22, (3S,4R,5R)-1-(((R)-1-(benzo[d]oxazol-2-yl)pyrrolidin-3-yl)methyl)piperidine-3,4,5-triol] | 4% | < 0.1 µM | –
O[C@H]1[C@H](O)CN(C[C@H]2CCN(c3nc4ccccc4s3)C2)C[C@@H]1O [Example 23, (3S,4R,5R)-1-(((R)-1-(benzo[d]thiazol-2-yl)pyrrolidin-3-yl)methyl)piperidine-3,4,5-triol] | 5% | < 0.1 µM | –
O[C@H]1[C@H](O)CN(C[C@@H]2CCN(c3ncccc3C(F)(F)F)C2)C[C@@H]1O [Example 24, (3S,4S,5R)-1-(((S)-1-(3-(trifluoromethyl)pyridin-2-yl)pyrrolidin-3-yl)methyl)piperidine-3,4,5-triol] | 3% | < 0.1 µM | –
O[C@H]1[C@H](O)CN(C[C@@H]2CCN(c3cnccc3C(F)(F)F)C2)C[C@@H]1O [Example 25, (3S,4S,5R)-1-(((S)-1-(4-(trifluoromethyl)pyridin-3-yl)pyrrolidin-3-yl)methyl)piperidine-3,4,5-triol] | 1% | < 0.1 µM | –
O[C@H]1[C@H](O)CN(C[C@@H]2CCN(c3cncnc3C(F)(F)F)C2)C[C@@H]1O [Example 26, (3S,4S,5R)-1-(((S)-1-(4-(trifluoromethyl)pyrimidin-5-yl)pyrrolidin-3-yl)methyl)piperidine-3,4,5-triol] | 0% | < 0.1 µM | –
O[C@H]1[C@H](O)CN(C[C@@H]2CCN(c3nc(C(F)(F)F)cs3)C2)C[C@@H]1O [Example 27, (3S,4S,5R)-1-(((S)-1-(4-(trifluoromethyl)thiazol-2-yl)pyrrolidin-3-yl)methyl)piperidine-3,4,5-triol] | 2% | < 0.1 µM | –
O[C@H]1[C@H](O)CN(C[C@@H]2CCN(c3cccc4scnc34)C2)C[C@@H]1O [Example 28, (3S,4S,5R)-1-(((S)-1-(benzo[d]thiazol-4-yl)pyrrolidin-3-yl)methyl)piperidine-3,4,5-triol] | 11% | < 0.1 µM | –
CC(C)c1cnc(N2CCC[C@H](CN3C[C@@H](O)[C@H](O)[C@@H](O)C3)C2)s1 [Example 32, (3S,4R,5R)-1-(((R)-1-(5-isopropylthiazol-2-yl)piperidin-3-yl)methyl)piperidine-3,4,5-triol] | 2% | < 0.1 µM | –
O[C@H]1[C@H](O)CN(C[C@H]2CCCN(c3nc(C(F)(F)F)cs3)C2)C[C@@H]1O [Example 33, (3S,4R,5R)-1-(((R)-1-(4-(trifluoromethyl)thiazol-2-yl)piperidin-3-yl)methyl)piperidine-3,4,5-triol] | – | < 0.1 µM | –
O[C@H]1[C@H](O)CN(C[C@@H]2CCCN(c3cccc(C(F)(F)F)n3)C2)C[C@@H]1O [Example 37, (3S,4S,5R)-1-(((S)-1-(6-(trifluoromethyl)pyridin-2-yl)piperidin-3-yl)methyl)piperidine-3,4,5-triol] | 0% | 0.1 to 1 µM | –
O[C@H]1[C@H](O)CN(C[C@@H]2CCCN(c3nc(C(F)(F)F)cs3)C2)C[C@@H]1O [Example 39, (3S,4S,5R)-1-(((S)-1-(4-(trifluoromethyl)thiazol-2-yl)piperidin-3-yl)methyl)piperidine-3,4,5-triol] | 0% | 0.1 to 1 µM | –
O[C@H]1[C@H](O)CN(CC2Cc3ccccc3C2)C[C@@H]1O [Example 62, (3S,4r,5R)-1-((2,3-dihydro-1H-inden-2-yl)methyl)piperidine-3,4,5-triol] | 12% | < 0.1 µM | –
O[C@H]1[C@H](O)CN(CC2CCN(c3ccccc3)CC2)C[C@@H]1O [Example 106, (3S,4r,5R)-1-((1-phenylpiperidin-4-yl)methyl)piperidine-3,4,5-triol] | 9% | < 0.1 µM | –
O[C@H]1[C@H](O)CN(C[C@H]2CCN(c3cccc(C(F)(F)F)n3)C2)C[C@@H]1O [Example 142, (3S,4R,5R)-1-(((R)-1-(6-(trifluoromethyl)pyridin-2-yl)pyrrolidin-3-yl)methyl)piperidine-3,4,5-triol] | 0% | < 0.1 µM | –
O[C@H]1[C@H](O)CN(C[C@H]2CCN(c3cncc(C(F)(F)F)c3)C2)C[C@@H]1O [Example 146, (3S,4R,5R)-1-(((R)-1-(5-(trifluoromethyl)pyridin-3-yl)pyrrolidin-3-yl)methyl)piperidine-3,4,5-triol] | 0% | < 0.1 µM | –
O[C@H]1[C@H](O)CN(C[C@H]2CCN(c3ccc(C(F)(F)F)nc3)C2)C[C@@H]1O [Example 149, (3S,4R,5R)-1-(((R)-1-(6-(trifluoromethyl)pyridin-3-yl)pyrrolidin-3-yl)methyl)piperidine-3,4,5-triol] | 0% | < 0.1 µM | –
O[C@H]1[C@H](O)CN(C[C@@H]2CCN(c3ccc(C(F)(F)F)cn3)C2)C[C@@H]1O [Example 161, (3S,4S,5R)-1-(((S)-1-(5-(trifluoromethyl)pyridin-2-yl)pyrrolidin-3-yl)methyl)piperidine-3,4,5-triol] | 0% | < 0.1 µM | –
O[C@H]1[C@H](O)CN(C[C@@H]2CCN(c3ccc(C(F)(F)F)nc3)C2)C[C@@H]1O [Example 162, (3S,4S,5R)-1-(((S)-1-(6-(trifluoromethyl)pyridin-3-yl)pyrrolidin-3-yl)methyl)piperidine-3,4,5-triol] | 0% | < 0.1 µM | –
O[C@H]1[C@H](O)CN(C[C@H]2CCCN(c3cnccc3C(F)(F)F)C2)C[C@@H]1O [Example 167, (3S,4R,5R)-1-(((R)-1-(4-(trifluoromethyl)pyridin-3-yl)piperidin-3-yl)methyl)piperidine-3,4,5-triol] | 4% | < 0.1 µM | –
O[C@H]1[C@H](O)CN(Cc2ccc(N3CCCC3)cc2)C[C@@H]1O [Example 203, (3S,4r,5R)-1-(4-(pyrrolidin-1-yl)benzyl)piperidine-3,4,5-triol] | – | 0.1 to 1 µM | –
CCCCN1C[C@H](O)[C@@H](O)[C@H](O)[C@H]1CO [NB-DNJ, (2R,3R,4R,5S)-1-butyl-2-(hydroxymethyl)piperidine-3,4,5-triol, reference compound] | 98% | – | –
